{"source": "ChEMBL document CHEMBL5465560", "about": "“Selectivity Literature for EUbOPEN Chemogenomic Library” (2024)", "key": {"[1]": {"target": "Tyrosine-protein kinase Lck (Homo sapiens, UniProt P06239)", "sequence (P06239 2-509 limits assumed)": "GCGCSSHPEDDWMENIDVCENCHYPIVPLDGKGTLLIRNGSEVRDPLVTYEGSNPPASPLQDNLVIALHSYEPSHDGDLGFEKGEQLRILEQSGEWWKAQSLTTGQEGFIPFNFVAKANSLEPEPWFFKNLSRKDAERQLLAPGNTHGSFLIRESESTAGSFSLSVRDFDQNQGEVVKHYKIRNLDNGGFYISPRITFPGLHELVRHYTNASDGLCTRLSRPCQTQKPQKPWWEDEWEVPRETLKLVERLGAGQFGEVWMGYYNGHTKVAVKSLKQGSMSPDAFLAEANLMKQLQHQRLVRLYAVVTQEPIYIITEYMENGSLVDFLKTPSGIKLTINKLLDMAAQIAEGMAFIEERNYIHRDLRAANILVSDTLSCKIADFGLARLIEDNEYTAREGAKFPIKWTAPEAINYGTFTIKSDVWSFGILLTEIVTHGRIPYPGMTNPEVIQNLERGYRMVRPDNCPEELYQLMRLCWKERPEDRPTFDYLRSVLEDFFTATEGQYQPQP", "test": "Selectivity interaction (KinomeScan (DiscoverX)) EUB0000092b LCK", "details": "at 10 µM"}, "[2]": {"target": "Receptor-interacting serine/threonine-protein kinase 2 (Homo sapiens, UniProt O43353)", "sequence (O43353 whole entry)": "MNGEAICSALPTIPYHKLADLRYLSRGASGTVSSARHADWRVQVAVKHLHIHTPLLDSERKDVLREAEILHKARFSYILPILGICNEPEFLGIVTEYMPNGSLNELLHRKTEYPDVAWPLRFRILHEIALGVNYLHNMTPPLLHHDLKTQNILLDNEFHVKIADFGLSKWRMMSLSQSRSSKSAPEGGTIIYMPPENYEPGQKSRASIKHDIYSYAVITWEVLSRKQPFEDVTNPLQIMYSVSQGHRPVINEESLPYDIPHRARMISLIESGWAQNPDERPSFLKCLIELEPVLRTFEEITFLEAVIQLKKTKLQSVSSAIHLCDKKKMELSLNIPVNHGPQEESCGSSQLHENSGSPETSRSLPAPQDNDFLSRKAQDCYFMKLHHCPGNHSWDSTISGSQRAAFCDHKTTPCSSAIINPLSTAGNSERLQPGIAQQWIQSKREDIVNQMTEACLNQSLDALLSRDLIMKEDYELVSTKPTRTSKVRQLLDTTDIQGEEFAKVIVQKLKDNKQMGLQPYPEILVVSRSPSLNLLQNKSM", "test": "Selectivity interaction (KinomeScan (DiscoverX)) EUB0001079a RIPK2", "details": "at 1 µM"}, "[3]": {"target": "T1, Serine/threonine-protein kinase LATS1 (Homo sapiens) (UniProt O95835)", "T1 sequence (whole entry)": "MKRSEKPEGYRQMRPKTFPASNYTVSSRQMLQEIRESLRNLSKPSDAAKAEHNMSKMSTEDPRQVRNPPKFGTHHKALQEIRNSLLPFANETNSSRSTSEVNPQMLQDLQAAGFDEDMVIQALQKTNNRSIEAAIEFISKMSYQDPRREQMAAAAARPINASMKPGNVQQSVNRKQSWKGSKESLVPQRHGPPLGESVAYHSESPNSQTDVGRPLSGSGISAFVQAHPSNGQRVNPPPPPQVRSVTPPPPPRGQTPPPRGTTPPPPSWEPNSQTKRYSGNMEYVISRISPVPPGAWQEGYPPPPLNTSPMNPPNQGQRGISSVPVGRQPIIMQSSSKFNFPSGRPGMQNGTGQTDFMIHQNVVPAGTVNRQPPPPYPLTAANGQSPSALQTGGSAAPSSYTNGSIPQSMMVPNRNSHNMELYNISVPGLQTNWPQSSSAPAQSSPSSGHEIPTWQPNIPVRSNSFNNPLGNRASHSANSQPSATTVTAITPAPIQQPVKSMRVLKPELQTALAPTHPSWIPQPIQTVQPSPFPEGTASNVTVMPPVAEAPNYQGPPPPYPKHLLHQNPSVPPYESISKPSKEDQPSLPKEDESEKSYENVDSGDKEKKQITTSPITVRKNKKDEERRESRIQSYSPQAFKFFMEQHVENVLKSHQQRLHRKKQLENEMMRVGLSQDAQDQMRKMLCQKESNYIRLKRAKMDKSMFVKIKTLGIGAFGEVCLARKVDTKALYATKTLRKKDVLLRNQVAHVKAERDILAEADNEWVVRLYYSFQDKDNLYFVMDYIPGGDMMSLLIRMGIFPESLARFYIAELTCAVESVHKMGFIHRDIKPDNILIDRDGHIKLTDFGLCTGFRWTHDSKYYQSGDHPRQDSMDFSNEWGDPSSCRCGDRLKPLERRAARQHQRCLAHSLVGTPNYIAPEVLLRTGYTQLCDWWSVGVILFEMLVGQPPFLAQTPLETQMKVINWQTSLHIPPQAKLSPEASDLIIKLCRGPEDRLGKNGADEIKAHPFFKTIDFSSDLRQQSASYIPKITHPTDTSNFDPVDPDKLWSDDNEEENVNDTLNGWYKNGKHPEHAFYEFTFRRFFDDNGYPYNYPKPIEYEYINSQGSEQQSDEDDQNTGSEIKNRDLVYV", "test": "Selectivity interaction (KinomeScan (DiscoverX)) EUB0001049a LATS1", "details": "at 1 µM"}, "[4]": {"target": "Cysteinyl leukotriene receptor 1 (Homo sapiens) (UniProt Q9Y271)", "sequence (Q9Y271 whole entry)": "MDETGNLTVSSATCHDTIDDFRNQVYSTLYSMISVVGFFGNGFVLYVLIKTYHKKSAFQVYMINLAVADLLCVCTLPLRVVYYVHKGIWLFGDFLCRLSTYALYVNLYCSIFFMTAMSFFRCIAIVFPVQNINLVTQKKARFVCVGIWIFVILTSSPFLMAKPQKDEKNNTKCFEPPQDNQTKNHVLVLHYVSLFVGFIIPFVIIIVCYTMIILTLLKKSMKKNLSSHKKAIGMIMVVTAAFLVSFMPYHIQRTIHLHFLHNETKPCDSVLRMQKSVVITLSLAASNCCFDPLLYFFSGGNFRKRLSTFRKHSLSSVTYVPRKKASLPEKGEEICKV", "test": "Selectivity interaction (Eurofins CEREP Diversity Profile (receptors and ion channels)) EUB0000279b CYSLTR1", "details": "at 10 µM"}, "[5]": {"target": "T2, Serine/threonine-protein kinase STK11 (Homo sapiens) (UniProt Q15831)", "T2 sequence (whole entry)": "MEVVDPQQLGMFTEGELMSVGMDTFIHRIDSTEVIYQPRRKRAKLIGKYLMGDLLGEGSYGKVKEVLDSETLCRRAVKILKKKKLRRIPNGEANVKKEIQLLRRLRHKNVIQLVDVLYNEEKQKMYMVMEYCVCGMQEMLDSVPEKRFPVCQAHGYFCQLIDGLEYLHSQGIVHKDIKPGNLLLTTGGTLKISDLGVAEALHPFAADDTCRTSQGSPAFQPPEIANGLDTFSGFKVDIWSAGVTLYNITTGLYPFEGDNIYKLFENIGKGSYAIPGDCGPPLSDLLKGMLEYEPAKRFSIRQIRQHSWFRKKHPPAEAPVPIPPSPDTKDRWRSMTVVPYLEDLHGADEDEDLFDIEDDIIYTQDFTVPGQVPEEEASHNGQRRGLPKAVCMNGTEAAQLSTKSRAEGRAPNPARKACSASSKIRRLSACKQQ", "test": "Selectivity interaction (Ambit KINOMEscan and KiNATiv profiling in Jurkat cells) EUB0000090b STK11", "assay_type": "cell-based", "details": "at 1 µM"}, "[6]": {"target": "Serine/threonine-protein kinase 24 (Homo sapiens) (UniProt Q9Y6E0)", "sequence (Q9Y6E0 whole entry, looked up)": "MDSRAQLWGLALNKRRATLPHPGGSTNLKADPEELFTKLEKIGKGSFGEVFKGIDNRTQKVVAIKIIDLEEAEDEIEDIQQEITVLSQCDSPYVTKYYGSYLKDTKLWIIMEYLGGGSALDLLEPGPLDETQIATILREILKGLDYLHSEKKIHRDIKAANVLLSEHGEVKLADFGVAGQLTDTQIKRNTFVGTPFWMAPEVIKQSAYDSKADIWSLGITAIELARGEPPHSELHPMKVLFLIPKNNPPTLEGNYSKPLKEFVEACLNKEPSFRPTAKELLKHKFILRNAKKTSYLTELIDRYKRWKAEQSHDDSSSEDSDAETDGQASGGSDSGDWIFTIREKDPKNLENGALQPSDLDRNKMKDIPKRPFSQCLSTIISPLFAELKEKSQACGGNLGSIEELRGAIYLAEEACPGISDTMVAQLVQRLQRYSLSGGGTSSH", "test": "Selectivity interaction (ActivX KiNativ screen (ex vivo kinase selectivity in human PBMCs)) EUB0001619a STK24", "assay_type": "cell-based", "details": "PBMC, at 1 µM"}}, "data": [{"molecule": "CCC(=O)N1CCN(c2ccc(-n3c(=O)ccc4cnc5ccc(-c6cnc7ccccc7c6)cc5c43)cc2C(F)(F)F)CC1", "values": [{"measurement": "% of control", "setting": "[1]", "result": 77, "unit": "%"}]}, {"molecule": "Nc1cnc(N2CCc3cc(S(=O)(=O)Nc4c(F)cc(Cl)cc4F)cc(N4CCCC4=O)c32)nc1", "note": "[TP-020n]", "values": [{"measurement": "% of control", "setting": "[2]", "result": 53, "unit": "%"}]}, {"molecule": "COc1cc(Nc2nc(C)cc(-c3cnn4nc(OC)ccc34)n2)cc(C(F)(F)F)c1", "values": [{"measurement": "% of control", "setting": "[3]", "result": 100, "unit": "%"}]}, {"molecule": "CC(=O)c1cc(-c2ccccc2OCC2CC2)c2ncccn12", "values": [{"measurement": "% of control", "setting": "[4]", "result": 103, "unit": "%"}]}, {"molecule": "CN(C)C/C=C/C(=O)Nc1ccc(C(=O)N2CCCC(Nc3ncc(Cl)c(-c4c[nH]c5ccccc45)n3)C2)cc1", "note": "(stereo unspecified)", "values": [{"measurement": "% of control", "setting": "[5]", "result": 94, "unit": "%"}]}, {"molecule": "N#Cc1cccc(-c2c[nH]c3ncnc(N4CCOCC4)c23)c1", "values": [{"measurement": "% of inhibition", "setting": "[6]", "result": 46, "unit": "%"}]}]}
